# Laboratory results: PubChem BioAssay (NCI)
#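 Step 1: Grow cells in 96-well plates. Step 2: Expose to compound for 48 hours at 5 concentrations. Step 3: Interpolate endpoints linearly; if unreached, use highest concentration. TGI: concentration producing complete growth inhibition.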
# Key:
# Assay in all cases: inhibition of tumour cell growth, NCI panel, 48 h
# KM12 colon = test system: KM12 colon
# HL-60(TB) leukemia = test system: HL-60(TB) leukemia
# NCI-H226 lung = test system: NCI-H226 lung
# SK-OV-3 ovarian = test system: SK-OV-3 ovarian
# OVCAR-3 ovarian = test system: OVCAR-3 ovarian
# SN12K1 renal = test system: SN12K1 renal
# CCRF-CEM leukemia = test system: CCRF-CEM leukemia
# IGROV1 ovarian = test system: IGROV1 ovarian
# UACC-62 melanoma = test system: UACC-62 melanoma
# OVCAR-8 ovarian = test system: OVCAR-8 ovarian
# KM20L2 colon = test system: KM20L2 colon
# XF 498 CNS = test system: XF 498 CNS
# RPMI-8226 leukemia = test system: RPMI-8226 leukemia
# SK-MEL-28 melanoma = test system: SK-MEL-28 melanoma
# MALME-3M melanoma = test system: MALME-3M melanoma
# LOX IMVI melanoma = test system: LOX IMVI melanoma
# OVCAR-4 ovarian = test system: OVCAR-4 ovarian
# HCC-2998 colon = test system: HCC-2998 colon
# MCF7 breast = test system: MCF7 breast
# HOP-92 NSCLC = test system: HOP-92 NSCLC
# SF-295 CNS = test system: SF-295 CNS
# DLD-1 colon = test system: DLD-1 colon
# UO-31 renal = test system: UO-31 renal
# HOP-62 NSCLC = test system: HOP-62 NSCLC
# DMS 114 small cell lung = test system: DMS 114 small cell lung
# NCI/ADR-RES ovarian = test system: NCI/ADR-RES ovarian
# SF-539 CNS = test system: SF-539 CNS
# SNB-78 CNS = test system: SNB-78 CNS
# NCI-H460 lung = test system: NCI-H460 lung
# HT29 colon = test system: HT29 colon
# SNB-75 CNS = test system: SNB-75 CNS
# SNB-19 CNS = test system: SNB-19 CNS
# U251 CNS = test system: U251 CNS
# SW-620 colon = test system: SW-620 colon
# CAKI-1 renal = test system: CAKI-1 renal
# RXF 393 renal = test system: RXF 393 renal
# HCT-15 colon = test system: HCT-15 colon
# A549 NSCLC = test system: A549 NSCLC
# SK-MEL-2 melanoma = test system: SK-MEL-2 melanoma
# SN12C renal = test system: SN12C renal
# DMS 273 small cell lung = test system: DMS 273 small cell lung
# SK-MEL-5 melanoma = test system: SK-MEL-5 melanoma
# SF-268 CNS = test system: SF-268 CNS
# HCT-116 colon = test system: HCT-116 colon
# HOP-18 NSCLC = test system: HOP-18 NSCLC
# 786-0 renal = test system: 786-0 renal
# SR leukemia = test system: SR leukemia
# UACC-257 melanoma = test system: UACC-257 melanoma
# A498 renal = test system: A498 renal
# EKVX NSCLC = test system: EKVX NSCLC
# M19-MEL melanoma = test system: M19-MEL melanoma
# MOLT-4 leukemia = test system: MOLT-4 leukemia
# TK-10 renal = test system: TK-10 renal
# K-562 leukemia = test system: K-562 leukemia
# OVCAR-5 ovarian = test system: OVCAR-5 ovarian
# NCI-H23 lung = test system: NCI-H23 lung
# RXF-631 renal = test system: RXF-631 renal
# ACHN renal = test system: ACHN renal
# LXFL 529 NSCLC = test system: LXFL 529 NSCLC
# M14 melanoma = test system: M14 melanoma
# COLO 205 colon = test system: COLO 205 colon
# NCI-H522 lung = test system: NCI-H522 lung
smiles,measurement,setting,value
O=c1cc(O)ccn1C1C=C(CO)C(O)C1O (stereo not given),TGI,KM12 colon,> 625 µM
same,TGI,HL-60(TB) leukemia,> 625 µM
same,TGI,NCI-H226 lung,> 625 µM
same,TGI,SK-OV-3 ovarian,> 625 µM
same,TGI,OVCAR-3 ovarian,> 625 µM
same,TGI,SN12K1 renal,> 625 µM
same,TGI,CCRF-CEM leukemia,> 625 µM
same,TGI,IGROV1 ovarian,> 625 µM
same,TGI,UACC-62 melanoma,> 625 µM
same,TGI,OVCAR-8 ovarian,> 625 µM
same,TGI,KM20L2 colon,> 625 µM
same,TGI,XF 498 CNS,< 0.0625 µM
same,TGI,RPMI-8226 leukemia,> 625 µM
same,TGI,SK-MEL-28 melanoma,> 625 µM
same,TGI,MALME-3M melanoma,> 625 µM
same,TGI,LOX IMVI melanoma,> 625 µM
same,TGI,OVCAR-4 ovarian,> 625 µM
same,TGI,HCC-2998 colon,> 625 µM
same,TGI,MCF7 breast,> 625 µM
same,TGI,HOP-92 NSCLC,> 625 µM
same,TGI,SF-295 CNS,> 625 µM
same,TGI,DLD-1 colon,> 625 µM
same,TGI,UO-31 renal,> 625 µM
same,TGI,HOP-62 NSCLC,> 625 µM
same,TGI,DMS 114 small cell lung,> 625 µM
same,TGI,NCI/ADR-RES ovarian,> 625 µM
same,TGI,SF-539 CNS,> 625 µM
same,TGI,SNB-78 CNS,> 625 µM
same,TGI,NCI-H460 lung,> 625 µM
same,TGI,HT29 colon,> 625 µM
same,TGI,SNB-75 CNS,> 625 µM
same,TGI,SNB-19 CNS,> 625 µM
same,TGI,U251 CNS,> 625 µM
same,TGI,SW-620 colon,> 625 µM
same,TGI,CAKI-1 renal,> 625 µM
same,TGI,RXF 393 renal,> 625 µM
same,TGI,HCT-15 colon,> 625 µM
same,TGI,A549 NSCLC,> 625 µM
same,TGI,SK-MEL-2 melanoma,> 625 µM
same,TGI,SN12C renal,> 625 µM
same,TGI,DMS 273 small cell lung,> 625 µM
same,TGI,SK-MEL-5 melanoma,> 625 µM
same,TGI,SF-268 CNS,> 625 µM
same,TGI,HCT-116 colon,> 625 µM
same,TGI,HOP-18 NSCLC,> 625 µM
O=C1CCC[C@]2(CCCC(=O)N2)C1,TGI,KM12 colon,> 100 µM
same,TGI,786-0 renal,> 100 µM
same,TGI,HL-60(TB) leukemia,> 100 µM
same,TGI,NCI-H226 lung,> 100 µM
same,TGI,SR leukemia,> 100 µM
same,TGI,SK-OV-3 ovarian,> 100 µM
same,TGI,UACC-257 melanoma,> 100 µM
same,TGI,A498 renal,> 100 µM
same,TGI,EKVX NSCLC,> 100 µM
same,TGI,OVCAR-3 ovarian,> 100 µM
same,TGI,CCRF-CEM leukemia,> 100 µM
same,TGI,M19-MEL melanoma,> 100 µM
same,TGI,IGROV1 ovarian,> 100 µM
same,TGI,UACC-62 melanoma,> 100 µM
same,TGI,MOLT-4 leukemia,> 100 µM
same,TGI,OVCAR-8 ovarian,> 100 µM
same,TGI,KM20L2 colon,> 100 µM
same,TGI,XF 498 CNS,> 100 µM
same,TGI,RPMI-8226 leukemia,> 100 µM
same,TGI,SK-MEL-28 melanoma,> 100 µM
same,TGI,MALME-3M melanoma,> 100 µM
same,TGI,LOX IMVI melanoma,> 100 µM
same,TGI,OVCAR-4 ovarian,> 100 µM
same,TGI,TK-10 renal,> 100 µM
same,TGI,HCC-2998 colon,> 100 µM
same,TGI,K-562 leukemia,> 100 µM
same,TGI,HOP-92 NSCLC,> 100 µM
same,TGI,SF-295 CNS,> 100 µM
same,TGI,OVCAR-5 ovarian,> 100 µM
same,TGI,NCI-H23 lung,> 100 µM
same,TGI,DLD-1 colon,> 100 µM
same,TGI,RXF-631 renal,> 100 µM
same,TGI,UO-31 renal,> 100 µM
same,TGI,HOP-62 NSCLC,> 100 µM
same,TGI,DMS 114 small cell lung,> 100 µM
same,TGI,SF-539 CNS,> 100 µM
same,TGI,SNB-78 CNS,> 100 µM
same,TGI,NCI-H460 lung,> 100 µM
same,TGI,HT29 colon,> 100 µM
same,TGI,SNB-75 CNS,> 100 µM
same,TGI,ACHN renal,> 100 µM
same,TGI,SNB-19 CNS,> 100 µM
same,TGI,U251 CNS,> 100 µM
same,TGI,SW-620 colon,> 100 µM
same,TGI,CAKI-1 renal,> 100 µM
same,TGI,RXF 393 renal,> 100 µM
same,TGI,HCT-15 colon,> 100 µM
same,TGI,A549 NSCLC,> 100 µM
same,TGI,SK-MEL-2 melanoma,> 100 µM
same,TGI,SN12C renal,> 100 µM
same,TGI,DMS 273 small cell lung,> 100 µM
same,TGI,SK-MEL-5 melanoma,> 100 µM
same,TGI,LXFL 529 NSCLC,> 100 µM
same,TGI,SF-268 CNS,> 100 µM
same,TGI,M14 melanoma,> 100 µM
same,TGI,HCT-116 colon,> 100 µM
same,TGI,HOP-18 NSCLC,> 100 µM
same,TGI,COLO 205 colon,> 100 µM
same,TGI,NCI-H522 lung,> 100 µM
Cc1cc(NS(=O)(=O)c2ccc(NC(=O)c3ccc(Cl)c4c(Nc5ccc(S(N)(=O)=O)cc5)c5ccccc5nc34)cc2)no1,TGI,KM12 colon,37.8 µM
same,TGI,786-0 renal,34.8 µM
same,TGI,HL-60(TB) leukemia,65.6 µM
same,TGI,NCI-H226 lung,46 µM
same,TGI,SR leukemia,56.9 µM
same,TGI,SK-OV-3 ovarian,59.2 µM
same,TGI,UACC-257 melanoma,50.9 µM
same,TGI,A498 renal,49.9 µM
same,TGI,EKVX NSCLC,89.1 µM
same,TGI,OVCAR-3 ovarian,37.7 µM
same,TGI,M19-MEL melanoma,38.4 µM
same,TGI,IGROV1 ovarian,44.2 µM
same,TGI,UACC-62 melanoma,25.2 µM
same,TGI,MOLT-4 leukemia,56.6 µM
same,TGI,OVCAR-8 ovarian,36.6 µM
same,TGI,KM20L2 colon,56.6 µM
same,TGI,XF 498 CNS,36 µM
same,TGI,SK-MEL-28 melanoma,42.3 µM
same,TGI,MALME-3M melanoma,29.3 µM
same,TGI,LOX IMVI melanoma,29.7 µM
same,TGI,OVCAR-4 ovarian,47 µM
same,TGI,TK-10 renal,86.2 µM
same,TGI,HCC-2998 colon,33.2 µM
same,TGI,K-562 leukemia,> 100 µM
same,TGI,HOP-92 NSCLC,39.2 µM
same,TGI,SF-295 CNS,70 µM
same,TGI,OVCAR-5 ovarian,56.7 µM
same,TGI,NCI-H23 lung,49.3 µM
same,TGI,DLD-1 colon,52.4 µM
same,TGI,RXF-631 renal,50.2 µM
same,TGI,UO-31 renal,69.8 µM
same,TGI,HOP-62 NSCLC,41.1 µM
same,TGI,DMS 114 small cell lung,39.7 µM
same,TGI,SF-539 CNS,39.2 µM
same,TGI,SNB-78 CNS,> 100 µM
same,TGI,NCI-H460 lung,83.1 µM
same,TGI,HT29 colon,44.7 µM
same,TGI,SNB-75 CNS,42.6 µM
same,TGI,ACHN renal,73.8 µM
same,TGI,SNB-19 CNS,30.2 µM
same,TGI,U251 CNS,27 µM
same,TGI,SW-620 colon,38.9 µM
same,TGI,CAKI-1 renal,40.5 µM
same,TGI,RXF 393 renal,31.3 µM
same,TGI,HCT-15 colon,> 100 µM
same,TGI,A549 NSCLC,> 100 µM
same,TGI,SN12C renal,58.6 µM
same,TGI,DMS 273 small cell lung,47.4 µM
same,TGI,SK-MEL-5 melanoma,33.9 µM
same,TGI,LXFL 529 NSCLC,31.4 µM
same,TGI,SF-268 CNS,40.8 µM
same,TGI,M14 melanoma,65.7 µM
same,TGI,HCT-116 colon,30.8 µM
same,TGI,HOP-18 NSCLC,83 µM
same,TGI,COLO 205 colon,34.3 µM
same,TGI,NCI-H522 lung,23.7 µM
